Test [1] has as its target Ribosomal protein S6 kinase alpha-4 (Homo sapiens) (UniProt O75676). The test can be described thus: Inhibition of human MSK2 at 10 uM after 60 mins by TR-FRET assay. The conditions noted are these: values are per cent of control.
Test [2] addresses Insulin receptor (Homo sapiens) (UniProt P06213). The test can be described thus: Inhibition of human IR at 10 uM after 60 mins by TR-FRET assay; values are per cent of control. Background: In TR-FRET formats the signal depends on donor and acceptor labels being close together.
Test [3] addresses Focal adhesion kinase 1 (Homo sapiens) (UniProt Q05397). Put plainly: Inhibition of human FAK at 10 uM after 60 mins by TR-FRET assay; values are per cent of control.
The target in test [4] is ALK tyrosine kinase receptor (Homo sapiens) (UniProt Q9UM73). The test can be described thus: Inhibition of human ALK at 10 uM after 60 mins by TR-FRET assay; values are per cent of control.
For test [5], the target named is Rhodopsin kinase GRK7 (Homo sapiens) (UniProt Q8WTQ7). The test can be described thus: Inhibition of human GRK7 at 10 uM after 60 mins by TR-FRET assay; values are per cent of control.
Test [6] concerns the target Muscle, skeletal receptor tyrosine-protein kinase (Homo sapiens) (UniProt O15146). The test can be described thus: Inhibition of human MuSK at 10 uM after 60 mins by TR-FRET assay; values are per cent of control.
For test [7], the target named is Ephrin type-A receptor 4 (Homo sapiens) (UniProt P54764). The test can be described thus: Inhibition of human EphA4 at 10 uM after 60 mins by TR-FRET assay; values are per cent of control.
Test [8] concerns the target Ephrin type-A receptor 8 (Homo sapiens) (UniProt P29322). The test can be described thus: Inhibition of human EphA8 at 10 uM after 60 mins by TR-FRET assay; values are per cent of control.
Test [9] has as its target Homeodomain-interacting protein kinase 2 (Homo sapiens) (UniProt Q9H2X6). The test can be described thus: Inhibition of human HIPK2 at 10 uM after 60 mins by TR-FRET assay; values are per cent of control.
Test [10] concerns the target Serine/threonine-protein kinase MARK1 (Homo sapiens) (UniProt Q9P0L2). Put plainly: Inhibition of human MARK1 at 10 uM after 60 mins by TR-FRET assay; values are per cent of control.
Test [11] addresses SRSF protein kinase 2 (Homo sapiens) (UniProt P78362). Put plainly: Inhibition of human SRPK2 at 10 uM after 60 mins by TR-FRET assay; values are per cent of control.
In test [12] the target is Testis-specific serine/threonine-protein kinase 1 (Homo sapiens) (UniProt Q9BXA7). Put plainly: Inhibition of human TSSK1 at 10 uM after 60 mins by TR-FRET assay; values are per cent of control.
In test [13] the target is Calcium/calmodulin-dependent protein kinase type 1 (Homo sapiens) (UniProt Q14012). The test can be described thus: Inhibition of human CaMK1 at 10 uM after 60 mins by TR-FRET assay; values are per cent of control.
In test [14] the target is Calcium/calmodulin-dependent protein kinase type IV (Homo sapiens) (UniProt Q16566). Put plainly: Inhibition of human CaMK4 at 10 uM after 60 mins by TR-FRET assay; values are per cent of control.
In test [15] the target is Serine/threonine-protein kinase pim-3 (Homo sapiens) (UniProt Q86V86). The test can be described thus: Inhibition of human Pim-3 at 10 uM after 60 mins by TR-FRET assay; values are per cent of control.
The target in test [16] is Inhibitor of nuclear factor kappa-B kinase subunit alpha (Homo sapiens) (UniProt O15111). Put plainly: Inhibition of human IKKalpha at 10 uM after 60 mins by TR-FRET assay; values are per cent of control.
The target of test [17] is cGMP-dependent protein kinase 1 (Homo sapiens) (UniProt Q13976). Put plainly: Inhibition of human PKG1beta at 10 uM after 60 mins by TR-FRET assay; values are per cent of control.
In test [18] the target is Serine/threonine-protein kinase MRCK alpha (Homo sapiens) (UniProt Q5VT25). The test can be described thus: Inhibition of human MRCKalpha at 10 uM after 60 mins by TR-FRET assay; values are per cent of control.
For test [19], the target named is Casein kinase I isoform gamma-1 (Homo sapiens) (UniProt Q9HCP0). Put plainly: Inhibition of human CK1gamma1 at 10 uM after 60 mins by TR-FRET assay; values are per cent of control.
For test [20], the target named is Casein kinase I isoform gamma-3 (Homo sapiens) (UniProt Q9Y6M4). Put plainly: Inhibition of human CK1gamma3 at 10 uM after 60 mins by TR-FRET assay; values are per cent of control.
Test [21] concerns the target CDK6/cyclin D3 (Homo sapiens) (UniProt P30281+Q00534). The test can be described thus: Inhibition of human CDK6/cyclinD3 at 10 uM after 60 mins by TR-FRET assay; values are per cent of control.
Test [22] has as its system Mast/stem cell growth factor receptor Kit (Homo sapiens), P10721 [V560G]. The test can be described thus: Inhibition of human c-Kit V560G mutant at 10 uM after 60 mins by TR-FRET assay; values are per cent of control.

Chain of Testis-specific serine/threonine-protein kinase 1 (Homo sapiens) (Q9BXA7 whole entry): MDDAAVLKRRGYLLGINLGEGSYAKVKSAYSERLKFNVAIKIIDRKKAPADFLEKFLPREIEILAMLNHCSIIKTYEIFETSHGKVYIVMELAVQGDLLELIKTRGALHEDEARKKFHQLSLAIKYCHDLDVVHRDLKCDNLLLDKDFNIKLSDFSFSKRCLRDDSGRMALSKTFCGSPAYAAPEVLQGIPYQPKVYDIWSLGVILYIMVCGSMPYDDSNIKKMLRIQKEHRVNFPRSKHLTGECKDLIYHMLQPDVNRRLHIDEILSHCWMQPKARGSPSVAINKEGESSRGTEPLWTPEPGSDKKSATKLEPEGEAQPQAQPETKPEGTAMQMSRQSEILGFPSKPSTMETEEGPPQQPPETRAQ
Chain of Rhodopsin kinase GRK7 (Homo sapiens) (Q8WTQ7 whole entry): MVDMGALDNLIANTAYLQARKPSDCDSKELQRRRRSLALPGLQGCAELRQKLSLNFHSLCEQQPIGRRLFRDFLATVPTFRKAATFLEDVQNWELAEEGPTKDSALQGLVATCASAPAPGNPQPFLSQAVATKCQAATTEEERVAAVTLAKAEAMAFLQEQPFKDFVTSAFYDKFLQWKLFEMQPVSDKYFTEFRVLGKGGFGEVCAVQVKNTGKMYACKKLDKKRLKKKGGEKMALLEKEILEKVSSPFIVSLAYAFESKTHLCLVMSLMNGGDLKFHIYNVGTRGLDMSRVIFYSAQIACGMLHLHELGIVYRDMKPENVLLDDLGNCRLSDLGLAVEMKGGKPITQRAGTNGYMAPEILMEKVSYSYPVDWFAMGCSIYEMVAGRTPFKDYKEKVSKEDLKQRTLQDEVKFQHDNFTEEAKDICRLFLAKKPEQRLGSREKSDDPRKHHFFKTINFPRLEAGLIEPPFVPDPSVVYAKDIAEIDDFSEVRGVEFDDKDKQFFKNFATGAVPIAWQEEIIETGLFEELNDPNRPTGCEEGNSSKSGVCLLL
Chain of cGMP-dependent protein kinase 1 (Homo sapiens) (Q13976 whole entry): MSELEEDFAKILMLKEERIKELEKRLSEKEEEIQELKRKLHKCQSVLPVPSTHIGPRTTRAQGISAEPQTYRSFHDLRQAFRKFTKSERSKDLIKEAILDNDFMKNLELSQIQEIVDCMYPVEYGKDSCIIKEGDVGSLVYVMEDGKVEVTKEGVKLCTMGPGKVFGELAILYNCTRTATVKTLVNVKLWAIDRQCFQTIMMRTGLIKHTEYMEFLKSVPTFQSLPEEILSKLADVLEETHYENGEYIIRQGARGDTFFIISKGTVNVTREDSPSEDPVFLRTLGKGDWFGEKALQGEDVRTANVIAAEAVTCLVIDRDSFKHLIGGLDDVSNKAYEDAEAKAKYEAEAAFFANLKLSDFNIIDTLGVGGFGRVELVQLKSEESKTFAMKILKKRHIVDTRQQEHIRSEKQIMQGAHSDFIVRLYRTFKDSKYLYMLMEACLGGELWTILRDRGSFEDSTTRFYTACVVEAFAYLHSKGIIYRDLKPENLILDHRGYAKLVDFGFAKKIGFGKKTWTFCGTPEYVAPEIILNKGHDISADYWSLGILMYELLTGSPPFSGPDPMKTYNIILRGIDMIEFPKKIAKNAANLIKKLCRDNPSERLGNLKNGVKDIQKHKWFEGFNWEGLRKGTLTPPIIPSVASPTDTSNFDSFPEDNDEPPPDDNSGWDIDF
Chain of Insulin receptor (Homo sapiens) (P06213 28-758 limits assumed): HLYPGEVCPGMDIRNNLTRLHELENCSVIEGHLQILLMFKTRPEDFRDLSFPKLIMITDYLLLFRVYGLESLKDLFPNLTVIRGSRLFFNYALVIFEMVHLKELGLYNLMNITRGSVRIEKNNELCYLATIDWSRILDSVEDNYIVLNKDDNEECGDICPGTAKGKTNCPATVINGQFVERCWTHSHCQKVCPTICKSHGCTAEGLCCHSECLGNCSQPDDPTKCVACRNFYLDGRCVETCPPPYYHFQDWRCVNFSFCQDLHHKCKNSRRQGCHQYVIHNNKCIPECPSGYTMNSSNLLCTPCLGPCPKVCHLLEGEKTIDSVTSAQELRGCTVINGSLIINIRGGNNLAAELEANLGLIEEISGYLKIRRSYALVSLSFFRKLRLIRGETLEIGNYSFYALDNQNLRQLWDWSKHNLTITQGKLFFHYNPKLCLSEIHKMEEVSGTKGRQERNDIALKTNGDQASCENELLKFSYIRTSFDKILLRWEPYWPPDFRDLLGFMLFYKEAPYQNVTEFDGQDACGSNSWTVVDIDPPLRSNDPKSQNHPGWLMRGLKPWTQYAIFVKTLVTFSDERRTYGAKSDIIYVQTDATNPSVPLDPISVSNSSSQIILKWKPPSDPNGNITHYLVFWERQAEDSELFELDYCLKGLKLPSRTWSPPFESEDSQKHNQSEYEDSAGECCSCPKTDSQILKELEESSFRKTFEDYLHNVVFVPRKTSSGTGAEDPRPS
Chain of Insulin receptor (Homo sapiens) (P06213 763-1382 limits assumed): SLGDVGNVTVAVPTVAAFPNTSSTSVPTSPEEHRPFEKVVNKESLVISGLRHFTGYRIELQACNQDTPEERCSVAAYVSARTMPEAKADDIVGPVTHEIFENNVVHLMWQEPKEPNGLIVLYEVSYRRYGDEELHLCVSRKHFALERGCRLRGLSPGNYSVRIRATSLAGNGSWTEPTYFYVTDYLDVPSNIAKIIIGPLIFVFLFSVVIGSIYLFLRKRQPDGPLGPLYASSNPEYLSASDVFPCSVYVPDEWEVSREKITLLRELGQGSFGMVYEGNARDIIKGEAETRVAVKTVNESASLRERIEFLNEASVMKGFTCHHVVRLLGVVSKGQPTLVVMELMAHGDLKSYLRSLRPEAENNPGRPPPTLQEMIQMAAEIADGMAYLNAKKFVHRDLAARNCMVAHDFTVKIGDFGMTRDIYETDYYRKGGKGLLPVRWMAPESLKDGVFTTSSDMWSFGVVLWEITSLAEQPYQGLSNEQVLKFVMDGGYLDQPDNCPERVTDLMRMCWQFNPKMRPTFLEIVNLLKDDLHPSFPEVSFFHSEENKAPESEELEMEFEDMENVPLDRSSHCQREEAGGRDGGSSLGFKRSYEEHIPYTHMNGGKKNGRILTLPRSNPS
Chain of SRSF protein kinase 2 (Homo sapiens) (P78362 whole entry, looked up): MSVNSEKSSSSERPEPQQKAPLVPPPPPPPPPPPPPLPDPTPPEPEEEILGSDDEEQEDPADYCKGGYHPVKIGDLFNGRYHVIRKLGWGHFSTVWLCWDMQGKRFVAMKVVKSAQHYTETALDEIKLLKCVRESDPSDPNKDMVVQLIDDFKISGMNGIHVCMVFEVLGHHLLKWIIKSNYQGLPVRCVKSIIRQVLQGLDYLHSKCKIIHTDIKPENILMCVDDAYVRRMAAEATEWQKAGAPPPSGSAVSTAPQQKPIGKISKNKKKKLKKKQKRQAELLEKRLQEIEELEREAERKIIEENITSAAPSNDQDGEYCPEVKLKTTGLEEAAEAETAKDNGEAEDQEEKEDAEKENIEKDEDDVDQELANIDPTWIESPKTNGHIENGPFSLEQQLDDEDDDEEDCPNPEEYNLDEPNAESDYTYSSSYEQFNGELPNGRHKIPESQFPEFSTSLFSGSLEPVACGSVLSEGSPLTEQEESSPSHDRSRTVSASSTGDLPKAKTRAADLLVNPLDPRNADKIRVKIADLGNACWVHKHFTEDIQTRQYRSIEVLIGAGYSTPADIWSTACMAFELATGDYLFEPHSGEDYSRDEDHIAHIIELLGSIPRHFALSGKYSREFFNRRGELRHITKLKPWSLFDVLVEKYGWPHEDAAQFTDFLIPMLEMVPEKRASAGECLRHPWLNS
Chain of Muscle, skeletal receptor tyrosine-protein kinase (Homo sapiens) (O15146 whole entry): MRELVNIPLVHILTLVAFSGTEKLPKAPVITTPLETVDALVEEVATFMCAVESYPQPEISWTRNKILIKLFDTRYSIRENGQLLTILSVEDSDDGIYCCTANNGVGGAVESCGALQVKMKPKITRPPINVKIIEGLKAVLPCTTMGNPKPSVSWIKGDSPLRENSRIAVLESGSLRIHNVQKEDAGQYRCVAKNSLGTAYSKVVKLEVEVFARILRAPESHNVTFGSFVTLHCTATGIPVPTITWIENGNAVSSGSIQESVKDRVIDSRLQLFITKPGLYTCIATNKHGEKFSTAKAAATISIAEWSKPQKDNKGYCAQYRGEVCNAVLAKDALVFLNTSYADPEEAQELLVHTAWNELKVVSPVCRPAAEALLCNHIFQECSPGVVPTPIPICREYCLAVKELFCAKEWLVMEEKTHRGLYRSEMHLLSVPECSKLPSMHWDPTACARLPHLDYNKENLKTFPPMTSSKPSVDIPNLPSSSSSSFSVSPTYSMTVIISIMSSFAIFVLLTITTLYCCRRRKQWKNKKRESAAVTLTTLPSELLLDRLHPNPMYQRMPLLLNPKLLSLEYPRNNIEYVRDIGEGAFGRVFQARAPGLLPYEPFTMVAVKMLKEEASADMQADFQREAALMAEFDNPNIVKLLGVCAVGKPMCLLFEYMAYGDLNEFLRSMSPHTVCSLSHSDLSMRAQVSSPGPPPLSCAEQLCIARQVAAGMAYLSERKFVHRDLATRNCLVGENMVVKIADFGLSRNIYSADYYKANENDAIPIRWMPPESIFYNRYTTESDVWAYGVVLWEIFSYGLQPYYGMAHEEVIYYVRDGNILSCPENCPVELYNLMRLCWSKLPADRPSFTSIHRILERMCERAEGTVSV
Chain of Casein kinase I isoform gamma-3 (Homo sapiens) (Q9Y6M4 whole entry, looked up, canonical isoform): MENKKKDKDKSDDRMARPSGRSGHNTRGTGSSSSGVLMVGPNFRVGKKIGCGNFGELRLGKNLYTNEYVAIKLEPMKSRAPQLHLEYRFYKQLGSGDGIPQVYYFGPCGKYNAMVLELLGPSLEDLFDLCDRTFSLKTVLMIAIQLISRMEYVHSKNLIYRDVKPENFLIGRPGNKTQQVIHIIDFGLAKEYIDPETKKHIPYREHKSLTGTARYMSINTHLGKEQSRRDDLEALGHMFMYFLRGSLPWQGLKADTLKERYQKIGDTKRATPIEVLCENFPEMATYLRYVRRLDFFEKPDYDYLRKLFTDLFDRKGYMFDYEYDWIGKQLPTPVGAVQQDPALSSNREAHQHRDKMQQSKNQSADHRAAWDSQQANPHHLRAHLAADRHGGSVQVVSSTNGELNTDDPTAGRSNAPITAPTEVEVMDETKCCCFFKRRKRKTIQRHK

`S=c1[nH]nc(-c2ccncc2)n1-c1ccc2ccccc2c1`: the residual activity – broadly, the signal under treatment as a percentage of the control signal – in [1] was 109%; in test [2] it was 106%; in [3], 106%; in test [4], 101%; in test [5], 124%; in test [6], 114%. The residual activity amounted to 127% in [7]; 99% in [8]; 95% in test [9]; 113% in test [10]; 110% in [11]; 111% in test [12]. The residual activity is 105% in test [13]; 112% in [14]; 99% in test [15]; 100% in test [16]; 109% in test [17]; 105% in test [18]. Besides, the residual activity in test [19] came out at 105%; in test [20], 108%; in test [21], 102%; in test [22], 102%.

Values taken from ChEMBL document CHEMBL1641539 (Bioorg Med Chem Lett, 2011).
